From the METLIN SMRT retention time set (Domingo-Almenara et al. 2019)

assay: gradient 5% acetonitrile 3 min, to 50% in 2 min, to 85% in 15 min, held 3 min, 100 µL/min; conditions: column: Zorbax Extend-C18 2.1 x 50 mm; eluents: water / acetonitrile, 0.1% formic acid
Outline: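 A Zorbax Extend-C18 column (2.1 × 50 mm, 1.8 μm) run at 100 μL/min with water and acetonitrile, both containing 0.1% formic acid, separated mixtures of ~100 pure standards. The HPLC was coupled to a quadrupole time-of-flight mass spectrometer operated in positive and negative ionization mode, with dead and dwell volumes of 40 μL and 900 μL. Each retention time was taken from a computationally picked adduct peak that was then manually inspected.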

**Q.** For `CCCn1cnc2cc(CNC(=O)CCc3ccccc3)ccc21`, which RP-LC retention time is on record?
**A.** 640 s

**Q.** With `CCOc1ccc(-c2nc(NC(=O)c3c(F)cccc3F)sc2C)cc1` as the compound, how does the RP-LC retention time read?
**A.** 1110 s

**Q.** For `CCOc1ccc(S(=O)(=O)N2CCC(C(=O)NCCO)CC2)cc1`, which RP-LC retention time is on record?
**A.** 665 s

**Q.** For `COCCN(Cc1ccc(Cl)cc1)Cc1cc(=O)n2ccccc2n1`, which RP-LC retention time is on record?
**A.** 635 s

**Q.** With `Cc1ccc(CNC(=O)N2CCC(OC3CCN(Cc4ccccc4)CC3)CC2)cc1` as the compound, how does the RP-LC retention time read?
**A.** 681 s

**Q.** With `CN(Cc1nc2ccccc2n1CC(=O)N(C)c1ccccc1)C(=O)c1ccco1` as the compound, how does the RP-LC retention time read?
**A.** 694 s

**Q.** With `CCc1nc2cc(N3CCC(C(=O)NCc4cccc(F)c4)CC3)cnc2nc1CC` as the compound, how does the RP-LC retention time read?
**A.** 840 s

**Q.** With `CCS(=O)(=O)N1CC(=O)N(c2ccc(C)c(F)c2)C(C)(C(=O)NC2CCCCCC2)C1` (stereo unspecified) as the compound, how does the RP-LC retention time read?
**A.** 968 s

**Q.** Which RP-LC retention time does the source give for `O=C(O)CCCCC(CCSCc1ccccc1)SCc1ccccc1` (stereo unspecified) here?
**A.** 670 s

**Q.** For `Cc1ccc(N(CN2CCCC2=O)C(=O)c2ccc(C)c(C)c2)cc1`, which RP-LC retention time is on record?
**A.** 783 s

**Q.** Which RP-LC retention time does the source give for `CCN(CC)CCCC(C)NC(=O)c1ccc2c(c1)C(=O)c1ccccc1C2=O` (stereo unspecified) here?
**A.** 671 s

**Q.** With `CCCCN1N=C(C(=O)N2CCOCC2)S(=O)(=O)c2ccc(Cl)cc21` as the compound, how does the RP-LC retention time read?
**A.** 889 s

**Q.** For `COc1ccc(NC(=O)C2CC(=O)N(c3ccc4c(c3)CCN4C(C)=O)C2)c(OC)c1` (stereo unspecified), which RP-LC retention time is on record?
**A.** 675 s

**Q.** With `O=C1CC(C(=O)N2CCc3ccccc32)CN1CCc1c[nH]c2ccc(Cl)cc12` (stereo unspecified) as the compound, how does the RP-LC retention time read?
**A.** 880 s

**Q.** With `COC(=O)c1ccc2c(c1)N(Cc1cccc(F)c1)C(=O)CS2=O` (stereo unspecified) as the compound, how does the RP-LC retention time read?
**A.** 744 s

**Q.** Which RP-LC retention time does the source give for `O=C(Nc1ccccc1)Nc1c(-c2ccccc2)nc2ccccn12` here?
**A.** 636 s

**Q.** With `CCS(=O)(=O)N1CCc2c(c(CN(C(=O)c3ccccc3F)c3ccccc3)nn2C)C1` as the compound, how does the RP-LC retention time read?
**A.** 774 s

**Q.** With `c1ccc(C2CN3CCSC3=N2)cc1` (stereo unspecified) as the compound, how does the RP-LC retention time read?
**A.** 618 s

**Q.** With `Cn1c(C2CCN(C(=O)c3ccc(Br)cc3)CC2)cc(=O)n2nccc12` as the compound, how does the RP-LC retention time read?
**A.** 679 s

**Q.** For `CC(=O)c1cccc(NC(=O)N2CCCN(c3nc4ccccc4n4cccc34)CC2)c1`, which RP-LC retention time is on record?
**A.** 647 s

**Q.** Which RP-LC retention time does the source give for `Cc1cc(N2CCCCC2)nc(N2CCN(C(=O)C3CCCCC3)CC2)n1` here?
**A.** 728 s

**Q.** For `CCN1CCN(C(=O)Cc2csc(-n3nc(C)c(Cl)c3C)n2)CC1`, which RP-LC retention time is on record?
**A.** 691 s

**Q.** With `Cc1ccc(-c2nnc(N3CCC(C(=O)NCCCN4CCCC4=O)CC3)o2)cc1` as the compound, how does the RP-LC retention time read?
**A.** 660 s

**Q.** For `COc1cccc(-c2noc(Cn3ccn(-c4ccc(Cl)cc4)c(=O)c3=O)n2)c1OC`, which RP-LC retention time is on record?
**A.** 824 s

**Q.** Which RP-LC retention time does the source give for `COc1ccc2[nH]c(=O)c(CCC(=O)NCc3cccs3)cc2c1` here?
**A.** 805 s

**Q.** For `COCCn1c(CCCC(=O)N2CCN(c3ccccn3)CC2)nc2cccnc21`, which RP-LC retention time is on record?
**A.** 562 s

**Q.** With `CCCCC(CC)C(=O)Nc1nc(-c2ccc(F)cc2)cs1` (stereo unspecified) as the compound, how does the RP-LC retention time read?
**A.** 1190 s

**Q.** Which RP-LC retention time does the source give for `Cc1ccc(CC(=O)Nc2c(C(=O)N3CCN(c4ccccn4)CC3)oc3ccccc23)cc1` here?
**A.** 716 s

**Q.** With `COc1cc2nc(N3CCC(N4CCCCC4)CC3)nc(NC3CCCCCC3)c2cc1OC` as the compound, how does the RP-LC retention time read?
**A.** 662 s

**Q.** For `CC(CNC(=O)c1cc2c(s1)CN(C1CC1)C2)c1ccccc1` (stereo unspecified), which RP-LC retention time is on record?
**A.** 731 s

**Q.** With `CNC(=O)Nc1cccn2nc(-c3ccccc3)nc12` as the compound, how does the RP-LC retention time read?
**A.** 702 s

**Q.** Which RP-LC retention time does the source give for `Cn1cccc(C(=O)Nc2nc3c(s2)CN(S(=O)(=O)C2CC2)CC3)c1=O` here?
**A.** 645 s

**Q.** For `O=C(NC(Cc1ccccc1)c1nnc(N2CCCCC2)o1)c1ccco1` (stereo unspecified), which RP-LC retention time is on record?
**A.** 775 s

**Q.** Which RP-LC retention time does the source give for `CCCSCCCNc1nc(-c2nnc(-c3ccc(C)cc3)o2)nc2ccccc12` here?
**A.** 1160 s

**Q.** With `COCCN1CCC(N2CCN(C(=O)C3(c4ccccc4)CC3)CC2)C1=O` (stereo unspecified) as the compound, how does the RP-LC retention time read?
**A.** 542 s

**Q.** Which RP-LC retention time does the source give for `COc1ccc(C(=O)NC2CCN(c3cc(-c4ccc(Cl)cc4)[nH]n3)C2)cc1OC` (stereo unspecified) here?
**A.** 738 s

**Q.** With `CC(C)c1noc(-c2ccnc(-n3cnc(C(=O)N4CCOCC4)c3)c2)n1` as the compound, how does the RP-LC retention time read?
**A.** 748 s

**Q.** Which RP-LC retention time does the source give for `Cc1csc(-c2ccc(CNC(=O)c3cc4ccccc4[nH]3)cc2)n1` here?
**A.** 938 s

**Q.** With `CCOc1ccc(-c2csc(NC(=O)CCCOc3ccccc3C)n2)cc1` as the compound, how does the RP-LC retention time read?
**A.** 1240 s

**Q.** With `CC(C)NC(=O)C1CCc2sc(C(=O)N3CCCCC3)cc2C1` (stereo unspecified) as the compound, how does the RP-LC retention time read?
**A.** 779 s

**Q.** With `Cc1ccc(CNC(=O)N2CCCC2c2nc(-c3ccccc3)no2)cc1` (stereo unspecified) as the compound, how does the RP-LC retention time read?
**A.** 994 s

**Q.** Which RP-LC retention time does the source give for `CC(C)n1c(=O)sc2cc(S(=O)(=O)N3CCC(C(=O)Nc4cccc(C#N)c4)CC3)ccc21` here?
**A.** 697 s

**Q.** For `Cc1cc(NS(=O)(=O)c2ccc(-c3nnc(C4CCC4)o3)o2)ccc1F`, which RP-LC retention time is on record?
**A.** 963 s

**Q.** Which RP-LC retention time does the source give for `COc1cccc(NC(=O)CN2CCc3c(c(=O)c4cc(C)ccc4n3C)C2)c1` here?
**A.** 609 s

**Q.** With `COc1cc(NC(=O)CN2CCSc3ccccc32)cc(OC)c1OC` as the compound, how does the RP-LC retention time read?
**A.** 890 s

**Q.** With `CCOc1ccc(NC(=O)Nc2cccc(-c3ccc(N4CCCCC4)nn3)c2)cc1` as the compound, how does the RP-LC retention time read?
**A.** 740 s
